Measured values: US6737058B2, “Methods for inhibiting endothelial cell and fibrinogen mediated inflammation using fibrinogen specific antibodies” (The Scripps Research Institute, priority 1992, dated 2004)

Columns and labels:
[1] = system: bovine aortic endothelial cells (BAE); experiment: Fibrinogen-mediated adhesion of 51Cr-labelled THP-1 cells to bovine aortic endothelial cells; assay type: cell-based; conditions: 500 μg/ml fibrinogen
Description: Cell adhesion binding assays described above were performed on bovine aortic endothelial cells (BAE) to determine if fibrinogen could mediate the binding of ^51Cr-labelled THP-1 cells to endothelial cells from a different source. Cell cultures were prepared from bovine aorta following procedures known to one skilled in the art. THP-1 cells were either left untreated or treated with 500 μg/ml fibrinogen over a 60 minute time course. At selected time points, the cells were harvested as described in Example 3B1) and the number of attached THP-1 cells were determined as previously described. […] However, in the presence of fibrinogen, approximately 20,000 cells bound to BAE cells after a 40 minute maintenance period. This maximum binding dropped off at 60 minutes to approximately 15,000 attached cells. Binding of THP-1 cells to HUVEC was done in parallel as a control for the experiment; the non-saturable binding of THP-1 cells in the presence of fibrinogen was maximal at 60 minutes with approximately 25,000 cells attached. Thus, fibrinogen mediates the binding of THP-1 cells not only to human endothelial cells but also to bovine-derived endothelial cells.

HUVEC [2] = experiment: Inhibition of 125I-labelled fibrinogen binding to HUVEC by cold fibrinogen, anti-VNR antibodies and RGD/RGE peptides; set-up: species or system human
Description: Binding of ^125I-labelled fibrinogen binding to HUVEC assays were performed in the presence of 50 molar excess of unlabelled fibrinogen in order to confirm the specificity of binding as shown in Example 3A. The binding assay was performed as described in Example 3A with the exception that unlabelled fibrinogen was admixed to HUVEC at a 50 molar excess (approximately […] fibrinogen) concurrently with 50 μg/ml of ^125I-labelled fibrinogen. The protein-cell admixtures were maintained at 22° C. for 30 minutes to allow for binding of fibrinogen to HUVEC. In addition to cold fibrinogen, a 50 fold molar excess of BSA was separately admixed as a control. The amount of fibrinogen bound under the above conditions was quantitated as described in Example 3A. The uninhibited total binding of ^125I-labelled fibrinogen saturated after 30 minutes at approximately 4000 cpm per well. […] The binding of fibrinogen to the HUVEC surface fibrinogen receptor is therefore specific.
The specificity of binding to an RGD-independent fibrinogen receptor was confirmed in competition assays performed as described above in the presence of monoclonal antibodies against the beta subunit of the RGD-dependent VNR and in the presence of RGD-containing peptides. For the assays in which the ability of anti-VNR monoclonal antibodies, designated mAb 609 and mAb 7E3, to inhibit the binding of ^125I-labelled fibrinogen to HUVEC, the antibodies were separately maintained at a concentration of 25 μg/ml with HUVEC for 20 minutes at 37° C. After the maintenance period, the antibody-treated HUVEC were washed once with serum-free RPMI 1640 to remove any unbound antibody. Labelled fibrinogen was then admixed to the treated HUVEC at a concentration of 50 μg/ml in the presence of 2.5 mM CaCl2 and […] PPack. The resultant admixtures were maintained for 10-30 minutes at 22° C. The fibrinogen-treated HUVEC were then washed, solubilized and counted as described in Example 3A.
To confirm that the fibrinogen binding site on HUVEC was not RGD dependent, inhibition assays performed as described above for inhibiting with antibodies except that they were done in the presence of 1.0 mM of an RGD-containing peptide. A control RGE-containing peptide was also included in the assay. At selected time points over the time course of one hour, the HUVEC were harvested as described in Example 3A.

HUVEC [3] = experiment: 125I-labelled fibrinogen binding to HUVEC monolayers, dose dependency; set-up: species or system human; conditions: monolayers of unstimulated HUVEC, 22° C., 45 minutes, 2.5 mM CaCl2
Description: Fibrinogen was iodinated using the Iodogen™ method. Briefly, Iodogen™ was dissolved in dichloromethane for a final concentration of 1 μg/ml and 170 μl of dissolved Iodogen™ that was dried in the bottom of a glass tube. Fibrinogen, prepared in Example 1A, was resuspended in 0.055 M sodium citrate buffer, pH 7.4, for a final concentration of 5 μg/ml. Two hundred μl of dissolved fibrinogen solution was placed into the Iodogen™-coated tube with 700 μCi of carrier-free sodium iodide. The admixture was maintained on ice for 20 minutes with occasional agitation. To stop the iodination reaction, the admixture was removed from the tube and gel filtered on a […]™ G-25 coarse column (100×2.5). Fractions of iodinated fibrinogen were determined by trichloroacetic acid precipitable counts. The labelled fibrinogen produced was radiolabelled to a specific activity of 0.3 μCi/μg of protein. Labelled fibrinogen was used in the binding and inhibition of binding assays described herein at a concentration of 50 μg/ml whereas unlabelled fibrinogen was generally used at a concentration of 500 μg/ml. […]
The resultant admixtures were maintained at 22° C. for 45 minutes to allow for fibrinogen to bind to the plated HUVEC. […] The cells were then solubilized in 10% SDS and the radioactivity associated under the maintenance conditions was quantitated in a gamma counter.

uninhibited total binding of 125I-labelled fibrinogen at saturation (HUVEC [2]; 50 μg/ml, after 30 minutes, 22° C.): approximately 4000 cpm per well | inhibition of 125I-labelled fibrinogen binding to HUVEC (FIG. 7) (HUVEC [2]; cold fibrinogen in 50 molar excess, 10-30 minutes): almost completely inhibited | inhibition of 125I-labelled fibrinogen binding to HUVEC (FIG. 8) (HUVEC [2]; cold fibrinogen, time course of one hour): completely inhibited | concentration at which 125I-labelled fibrinogen binds saturably (HUVEC [3]): approximately 0.36 μM
Substance: fibrinogen: fibrinogen isolated from fresh plasma by cold ethanol fractionation, fibronectin-free
THP-1 cells bound to BAE cells ([1]; 40 minutes): approximately 20,000 cells | THP-1 cells bound to BAE cells ([1]; 60 minutes): approximately 15,000 cells | inhibition of 125I-labelled fibrinogen binding to HUVEC (HUVEC [2]; 50 molar excess of unlabelled protein, 50 μg/ml labelled fibrinogen, 22° C., 30 minutes): half that of the total uninhibited binding
